In ChEMBL document CHEMBL3352116, “Discovery heralds new approach to the treatment of cystic fibrosis” (J Med Chem, 2014):

Key:
[1] = molecular target: Cystic fibrosis transmembrane conductance regulator (Homo sapiens, UniProt P13569); assay: Corrector activity at CFTR mutant (unknown origin) by phenotypic screening assay
[2] = Half life in rat; type: ADME, organism-based; conditions: in vivo
[3] = Oral bioavailability in rat; type: ADME, organism-based; conditions: in vivo
[4] = Inhibition of CYP450 (unknown origin); type: ADME; conditions: human
[5] = molecular target: Cystic fibrosis transmembrane conductance regulator (Homo sapiens, UniProt P13569, F508DEL/G551D); assay: […] activity at human bronchial epithelium CFTR F508del and G551D mutant assessed as increase in channel gating
Cystic fibrosis transmembrane conductance regulator (Homo sapiens, UniProt P13569, F508DEL/G551D), sequence (P13569 as listed by the source): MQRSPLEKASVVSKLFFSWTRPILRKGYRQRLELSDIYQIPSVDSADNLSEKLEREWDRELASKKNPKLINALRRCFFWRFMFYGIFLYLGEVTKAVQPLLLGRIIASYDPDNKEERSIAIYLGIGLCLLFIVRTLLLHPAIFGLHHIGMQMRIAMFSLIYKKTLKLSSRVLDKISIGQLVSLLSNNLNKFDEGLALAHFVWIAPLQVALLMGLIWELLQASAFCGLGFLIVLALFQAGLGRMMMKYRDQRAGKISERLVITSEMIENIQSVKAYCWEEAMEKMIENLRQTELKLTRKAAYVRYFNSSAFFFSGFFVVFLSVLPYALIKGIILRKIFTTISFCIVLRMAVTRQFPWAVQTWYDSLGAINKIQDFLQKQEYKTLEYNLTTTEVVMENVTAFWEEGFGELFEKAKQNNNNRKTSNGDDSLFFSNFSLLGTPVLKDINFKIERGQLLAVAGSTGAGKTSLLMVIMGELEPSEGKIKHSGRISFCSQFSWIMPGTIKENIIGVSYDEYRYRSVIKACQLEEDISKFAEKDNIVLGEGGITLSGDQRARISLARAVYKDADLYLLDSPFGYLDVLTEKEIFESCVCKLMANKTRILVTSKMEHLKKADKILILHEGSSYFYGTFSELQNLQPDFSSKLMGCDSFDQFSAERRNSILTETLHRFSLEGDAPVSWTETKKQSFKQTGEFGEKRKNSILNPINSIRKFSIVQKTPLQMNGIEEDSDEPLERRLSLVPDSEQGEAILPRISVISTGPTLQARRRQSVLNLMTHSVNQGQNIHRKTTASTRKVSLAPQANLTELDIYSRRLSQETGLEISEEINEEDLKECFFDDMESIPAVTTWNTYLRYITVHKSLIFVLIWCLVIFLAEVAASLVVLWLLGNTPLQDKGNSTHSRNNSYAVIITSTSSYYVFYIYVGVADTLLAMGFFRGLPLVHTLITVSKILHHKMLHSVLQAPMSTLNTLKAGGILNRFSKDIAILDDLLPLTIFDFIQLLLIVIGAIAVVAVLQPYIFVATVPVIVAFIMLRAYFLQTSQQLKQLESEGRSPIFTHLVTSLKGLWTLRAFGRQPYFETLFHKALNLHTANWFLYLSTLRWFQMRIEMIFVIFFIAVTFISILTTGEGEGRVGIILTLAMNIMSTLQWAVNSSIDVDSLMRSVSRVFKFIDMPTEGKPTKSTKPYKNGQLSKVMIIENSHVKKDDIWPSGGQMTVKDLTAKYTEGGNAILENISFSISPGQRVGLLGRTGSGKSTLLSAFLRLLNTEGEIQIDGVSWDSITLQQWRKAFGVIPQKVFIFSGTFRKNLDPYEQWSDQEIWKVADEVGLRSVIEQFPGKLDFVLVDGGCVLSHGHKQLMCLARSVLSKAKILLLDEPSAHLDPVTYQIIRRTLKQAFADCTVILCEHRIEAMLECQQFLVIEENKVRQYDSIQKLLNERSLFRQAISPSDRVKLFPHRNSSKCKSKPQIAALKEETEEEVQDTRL

Cystic fibrosis transmembrane conductance regulator (Homo sapiens, UniProt P13569), sequence (P13569 whole entry, looked up, change not shown): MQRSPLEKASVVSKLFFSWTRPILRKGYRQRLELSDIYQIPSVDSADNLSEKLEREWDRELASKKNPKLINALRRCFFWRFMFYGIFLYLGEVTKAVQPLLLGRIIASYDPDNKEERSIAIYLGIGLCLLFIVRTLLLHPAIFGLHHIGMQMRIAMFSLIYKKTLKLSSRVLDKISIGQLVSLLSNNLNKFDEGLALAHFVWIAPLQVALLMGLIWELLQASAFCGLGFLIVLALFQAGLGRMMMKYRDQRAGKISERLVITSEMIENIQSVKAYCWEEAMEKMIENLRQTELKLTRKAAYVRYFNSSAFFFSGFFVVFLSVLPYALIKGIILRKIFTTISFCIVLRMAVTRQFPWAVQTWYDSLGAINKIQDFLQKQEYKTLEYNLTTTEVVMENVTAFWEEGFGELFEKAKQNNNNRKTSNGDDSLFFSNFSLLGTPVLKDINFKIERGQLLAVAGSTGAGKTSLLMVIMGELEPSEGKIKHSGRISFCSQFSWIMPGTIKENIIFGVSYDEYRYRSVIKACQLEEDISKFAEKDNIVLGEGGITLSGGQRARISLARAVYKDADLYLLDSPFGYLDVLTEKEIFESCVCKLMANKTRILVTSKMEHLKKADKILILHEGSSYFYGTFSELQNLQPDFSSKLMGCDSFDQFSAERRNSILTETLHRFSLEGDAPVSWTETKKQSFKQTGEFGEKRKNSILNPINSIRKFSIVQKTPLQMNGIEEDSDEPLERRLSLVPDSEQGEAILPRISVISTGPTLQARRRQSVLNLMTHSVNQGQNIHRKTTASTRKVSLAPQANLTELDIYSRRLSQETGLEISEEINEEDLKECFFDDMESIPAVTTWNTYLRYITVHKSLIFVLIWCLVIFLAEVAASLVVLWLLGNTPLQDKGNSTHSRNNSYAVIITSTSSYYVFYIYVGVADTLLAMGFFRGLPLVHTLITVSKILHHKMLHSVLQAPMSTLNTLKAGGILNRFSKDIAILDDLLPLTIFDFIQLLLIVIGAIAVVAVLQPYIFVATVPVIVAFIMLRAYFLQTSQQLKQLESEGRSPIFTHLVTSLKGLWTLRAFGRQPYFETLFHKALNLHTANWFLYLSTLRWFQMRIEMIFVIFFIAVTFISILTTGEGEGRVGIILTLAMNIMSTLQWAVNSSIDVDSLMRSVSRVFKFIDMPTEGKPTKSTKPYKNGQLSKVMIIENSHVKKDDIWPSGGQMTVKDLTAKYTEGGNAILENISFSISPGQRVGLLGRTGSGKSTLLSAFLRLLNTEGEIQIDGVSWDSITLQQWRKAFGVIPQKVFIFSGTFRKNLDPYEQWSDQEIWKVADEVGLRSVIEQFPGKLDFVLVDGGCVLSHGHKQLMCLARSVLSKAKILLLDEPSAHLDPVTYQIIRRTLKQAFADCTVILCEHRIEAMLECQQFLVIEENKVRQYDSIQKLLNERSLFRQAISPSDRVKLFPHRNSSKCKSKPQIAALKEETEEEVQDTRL

| EC50 [1] | half-life [2] | bioavailability [3] | inhibition (INH) [4] | EC50 [5] | SMILES |
| --- | --- | --- | --- | --- | --- |
| 2100 nM |  |  |  |  | O=C(c1c[nH]c2ccccc2c1=O)N(Cc1ccccc1)Cc1ccccc1 |
| 100 nM |  |  |  |  | O=C(Nc1ccc2cc[nH]c2c1)c1c[nH]c2ccccc2c1=O |
| 3 nM | 9.5 h | 55% | Not Active | 236 nM | CC(C)(C)c1cc(C(C)(C)C)c(NC(=O)c2c[nH]c3ccccc3c2=O)cc1O [IVACAFTOR] |
